As usually defined, the MIC is the smallest concentration in the dilution series that meets the test's criterion for growth inhibition.

The source of these data is patent US10160867B2, “Benzoxaborole-containing coating resistant to cellulose-supportable fungus” (THE PENN STATE RESEARCH FOUNDATION, priority 2015, dated 2018).

Holding throughout (assay type): cell-based
In one assay the test system is Alternaria alternata. The assay is described as follows: 3 day MIC, broth microdilution in 25% PDB. As to conditions: 72 h, 25% PDB, read-out: 3 day MIC. How it is done: (§1) Stock solutions (concentrations of between 4,000 μg/mL to 10,000 μg/mL; stored at −18° C.) of the above antifungals were prepared in dimethyl sulfoxide (DMSO). The stock solutions were further diluted into sterile 25% potato dextrose broth (PDB) so that the diluted solutions could be used for the antifungal susceptibility studies. This way, a typical microdilution study would reach a final ratio of about 0.5-2% v/v of DMSO in 25% PDB.
(§2) Spore inocula were prepared in sterile distilled water with 0.1% Tween® 20 (a polysorbate surfactant), and a hemocytometer was used to determine the spore density. Typically, the spore inoculum was prepared fresh prior to each study, and the inoculum was appropriately diluted to a final concentration of 0.4-1×10^5 spores/mL or colony-forming unit (CFU)/mL in each study. The spore suspension can be stored in a refrigerator at 4° C. for up to one week.
(§3) The studies were performed in flat bottom, 96-well microtiter plates (Greiner Bio-One, Frickenhausen, Germany).
(§4) Plates sealed with clear polyester film (VWR, Radnor, Pa.) were incubated at a temperature of about 25° C. The progress of fungal growth was monitored at 48 hours and 72 hours.
Background: In broth dilution the organism is exposed to a series of concentrations in liquid medium.

Assay [1] deals with Stachybotrys chartarum. The assay is described as follows: 3 day MIC, broth microdilution in 25% PDB. The following applies: 72 h, 25% PDB, read-out: 3 day MIC. How it is done: as §1, §2, §3, §4
The next assay has as its system Aspergillus flavus. Kind of assay: 3 day MIC, broth microdilution in 25% PDB. The following applies: 72 h. How it is done: as §1, §2
(§5) The minimal inhibitory concentrations (MICs) for individual antifungal agents were determined by following a modified broth microdilution protocol CLSI (Clinical and Laboratory Standards Institute) M38-A2 [Clinical and Laboratory Standards Institute (2008) Reference method for broth dilution antifungal susceptibility testing of filamentous fungi—2nd edition: Approved Standard M38-A2, CLSI, Wayne, Pa.] where 25% potato dextrose broth (PDB) was used as the medium. The studies were performed in flat bottom, 96-well microtiter plates (Greiner Bio-One, Frickenhausen, Germany).
as §4

The next assay relates to Aspergillus fumigatus. Kind of assay: 3 day MIC, broth microdilution in 25% PDB. The following applies: 72 h. On the procedure: as §1, §2, §5, §4
In another assay the test system is Aspergillus niger. The assay is described as follows: 3 day MIC, broth microdilution in 25% PDB. As to conditions: 72 h. On the procedure:
as §1, §2, §5, §4

For a further assay, the system named is Aureobasidium pullulans. Kind of assay: 3 day MIC, broth microdilution in 25% PDB. The following applies: 72 h. On the procedure: as §1, §2, §5, §4
In another assay the test system is Fusarium oxysparum ST-33. Kind of assay: 3 day MIC, broth microdilution in 25% PDB. As to conditions: ST33, 72 h. How it is done: as §1, §2, §5, §4
In a further assay the test system is Mucor spp. Kind of assay: 3 day MIC, broth microdilution in 25% PDB. As to conditions: 72 h. On the procedure:
as §1, §2, §5, §4

A further assay concerns Rhizopus spp. The assay is described as follows: 3 day MIC, broth microdilution in 25% PDB. The following applies: 72 h. On the procedure:
as §1, §2, §5, §4

The test system of assay [2] is Stachybotrys chartarum. Kind of assay: Fungus resistance test after painting over fungal growth (defacement rating). As to conditions: painting over contaminated surfaces; paints containing 100 μg/mL; after 7 days. From the text: In this series of experiments, fungal growth was allowed to cover a painted surface (surface containing 2 coats of the unaltered paint) to a defacement rating of 3-5, forming a ‘contaminated surface’. […] The paint application was extended approximately 1-2 cm beyond the edge of the disc onto the NSA medium. Each formulation used a separate brush to avoid cross contamination. The re-painted discs were placed back into the humid environment with elevated temperature to encourage fungal growth.
This test was used to evaluate the ability of paint films containing antifungal additives to prevent the re-emergence of fungal growth after painting over existing growth.
Olympic® Home interior flat latex paint (PPG Industries, Pittsburgh, Pa.) and Valspar® QuikHide White flat interior paint (Valspar Corporation, Minneapolis, Minn.) were used for the experiments in this study unless specified. Stock solutions of the antifungal additives of interest were prepared in reagent grade dimethyl sulfoxide (DMSO; Alfa Aesar, Ward Hill, Mass.). Additives were spiked (by adding appropriate amounts of the antifungal stock solutions) into the liquid paint at specified concentrations. Samples of additive-spiked paint were vigorously mixed with a vortex mixer for at least one minute to insure uniform dispersion of the additive in the paint. […] Studies that used other brands of paint followed the same protocol as described for those using the Olympic® Home interior flat latex paint.
Test surfaces were prepared in triplicate. In most cases, the tested conditions were repeated on a different date, again in triplicate. […] Two coats of paint were applied with a polyester brush to completely cover both faces of the filter paper disc, allowing at least four hours drying time between coats.
Nutrient-Salts Agar (NSA) media was prepared according to ASTM method G21-13 in 100×15 mm sterile polystyrene petri dishes (VWR® Radnor, Pa.) with a solidified agar layer from 3 to 6 mm (⅛ to ¼ in.) in depth. The agar was allowed to solidify for at least 24 hours before being used. The painted test filter paper discs were placed in the center of the agar plates in a biosafety hood while wearing clean nitrile gloves.
The paint coatings were evaluated against three representative fungi: Stachybotrys chartarum, Penicillium chrysogenum, and Alternaria alternata. […] Fungal isolates of Alternaria alternata and Penicillium chrysogenum were obtained from the Plant Pathology and Environmental Microbiology Department at Penn State University.
A spore suspension of each of these fungi was prepared by pouring a 20-mL portion of autoclaved deionized water containing 0.01% Tween® 20 onto a subculture of each fungal species. Spores were counted with the use of a hemocytometer (Hausser Scientific, Horsham, Pa.) under a microscope. Spore suspensions of Stachybotrys chartarum and Penicillium chrysogenum were diluted to 1×10^6 spores/mL with autoclaved deionized water. Spore suspensions of Alternaria alternata were used “as is” in the range of 200,000 to 400,000 spores/mL.
Painted test surfaces were inoculated with a spray bottle or with a cotton-tipped applicator. To inoculate the sample with a spray bottle, the spore suspension was sprayed twice on the painted test discs with a spray bottle that delivered approximately 0.14 g of fluid per spray. To inoculate the sample with a cotton-tipped applicator, an autoclaved cotton-tipped applicator was submerged in approximately 400 μL of the inoculum solution and applied evenly over the surface of the painted test surface twice.

In brackets after ≈: the same amount, converted by molar mass.

With `Cc1ccc2c(c1)COB2O` [Compound B1, 5-Methyl-1,3-dihydro-2,1-benzoxaborol-1-ol], the MIC was determined as 6.3 µg/mL (≈ 42.6 µM) in the assay on Alternaria alternata; 0.5 µg/mL (≈ 3.38 µM) in the assay on Stachybotrys chartarum [1]; 2 µg/mL (≈ 13.5 µM) with Aspergillus flavus; 0.25 µg/mL (≈ 1.69 µM) in the assay on Aspergillus fumigatus; 2 µg/mL (≈ 13.5 µM) against Aspergillus niger; 1 µg/mL (≈ 6.76 µM) in the assay with Aureobasidium pullulans. Also, the values for the minimal inhibitory concentration (MIC) in the assay on Fusarium oxysparum ST-33, in the assay with Mucor spp. and against Rhizopus spp. were 1 µg/mL (≈ 6.76 µM), 1 µg/mL (≈ 6.76 µM) and 16 µg/mL (≈ 108 µM), respectively. Further, the “ability to inhibit Stachybotrys chartarum re-emergence on the surfaces” value in the assay with Stachybotrys chartarum [2] is on record as “very little ability to inhibit”.
Take `Nc1ccc2c(c1)COB2O` [Compound B6, 5-Amino-1,3-dihydro-2,1-benzoxaborol-1-ol]: the MIC in the assay on Alternaria alternata is 200 µg/mL (≈ 1340 µM); with Stachybotrys chartarum [1] it was 64 µg/mL (≈ 430 µM); in the assay with Aspergillus flavus, > 64 µg/mL; with Aspergillus fumigatus it was > 64 µg/mL; in the assay with Aspergillus niger, > 64 µg/mL; against Aureobasidium pullulans, > 64 µg/mL. Moreover, the MIC with Fusarium oxysparum ST-33, against Mucor spp. and with Rhizopus spp. was > 64 µg/mL each time. Moreover, the “ability to inhibit Stachybotrys chartarum re-emergence on the surfaces” value in the assay with Stachybotrys chartarum [2] is on record as “very little ability to inhibit”.
